The record followed here is patent US11098040B2, “Compounds and methods of use” (Ferro Therapeutics, Inc., priority 2018, dated 2021).

Like-named read-outs stand apart in the source and are kept apart here.

Series [1] has as its system KP4. Nature of the series: Cell viability assay (CellTiter Glo), pancreatic ductal adenocarcinoma KP4. Type of series: cell-based, human. To be noted: Homo sapiens. In short, it runs like this:
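Luminescent ATP readout (CellTiter Glo) after 96 h compound exposure, normalized to DMSO-treated cells as maximum. Compounds ran in duplicate, nine 3-fold steps from 30 μM down to 4.6 nM, final DMSO ≤0.25%; KP4 plated overnight at 1,000–10,000 cells/well. Outputs: IC50, relative IC50 or % top inhibition.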
(In general: ATP-based viability assays read luminescence as a measure of living cells.)

Series [2] deals with A673. The series is described as follows: Cell proliferation assay, A673 (Table 25). Particulars: Homo sapiens, A673, Cell Line A673. Type of series: cell-based. The protocol: (§1) Cell viability assay was performed to assess the potency of the compounds in human cancer cell lines 786-O (renal cell carcinoma) and SJSA-1 (osteosarcoma). Additional cell lines, such as those described above in Example 4 as well as various others, e.g., pancreatic cancer cell lines (Panc 02.13, BxPC-3, Panc 12, Panc 02.03, Panc 6.03, PSN-1, HPAC, and Capan-1) and prostate cancer cell lines (PC-3, DU145, 22Rv1, NCI-H660, BPH1, LNCaP, BM-1604, and MDA PCa 2b), were tested for select compounds as shown in Table 25.
(§2) The cell proliferation assays for the compounds shown Table 25 was performed according to the protocols described herein, including Examples 4 and 6.

Series [3] can be described thus: Whole blood stability, human. Format: in vitro ADME. From the text:
(§3) The results of the assay on stability in blood and IC50 values for pancreatic cancer cell line KP4 are given below in Table 24.

A short description of series [4]: Whole blood stability, mouse. Type of series: in vitro ADME.
Text: as §3

Series [5] has as its system PSN-1. The series is described as follows: Cell proliferation assay, pancreatic cancer cell line PSN-1. Format: cell-based. To be noted: Homo sapiens, PSN1. The method, then:
as §1, §2

Series [6] deals with NCI-H660. Nature of the series: Cell proliferation assay, prostate cancer cell line NCI-H660. Format: cell-based. The method, then: as §1, §2
Series [7] relates to Panc 6.03. The series is described as follows: Cell proliferation assay, pancreatic cancer cell line Panc 6.03. Type of series: cell-based. The protocol: as §1, §2
Series [8] deals with Capan-1. The series is described as follows: Cell proliferation assay, pancreatic cancer cell line Capan-1. Format: cell-based. Particulars: Homo sapiens. The protocol: as §1, §2
Series [9] relates to AsPC-1. The series is described as follows: Cell viability assay (CellTiter Glo), pancreatic adenocarcinoma AsPC-1. Format: cell-based. To be noted: Homo sapiens, ASPC1; Cell Line AsPC-1; read-out: IC50. In short, it runs like this:
(§4)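 MiaPaCa-2 and AsPC-1 cells were seeded overnight at 37 °C and exposed for 96 h to 9-point, 3-fold dilutions from up to 30 μM (final DMSO ≤0.25%). CellTiter Glo luminescence was read, and inhibition was calculated relative to DMSO-only cells. IC50, relative IC50 or % top inhibition was derived.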

Series [10] relates to BM-1604. The series is described as follows: Cell proliferation assay, prostate cancer cell line BM-1604. Type of series: cell-based. The protocol:
as §1, §2

Series [11] concerns MiaPaCa-2. The series is described as follows: Cell viability assay (CellTiter Glo), pancreatic carcinoma MiaPaCa-2. Format: cell-based. To be noted: Homo sapiens; Cell Line Mia PaCa-2; read-out: IC50. An outline of the steps: as §4
The subject of series [12] is BPH1. Nature of the series: Cell proliferation assay, prostate cancer cell line BPH1. Particulars: Homo sapiens, BPH-1. Type of series: cell-based. The protocol: as §1, §2
In series [13] the test system is Panc 02.03. Nature of the series: Cell proliferation assay, pancreatic cancer cell line Panc 02.03. Type of series: cell-based. To be noted: Homo sapiens. The method, then:
as §1, §2

The test system of series [14] is Panc 02.13. Nature of the series: Cell proliferation assay, pancreatic cancer cell line Panc 02.13. Type of series: cell-based. The protocol:
as §1, §2

Series [15] relates to BxPC-3. The series is described as follows: Cell proliferation assay, pancreatic cancer cell line BxPC-3. Type of series: cell-based. Particulars: Homo sapiens. The method, then: as §1, §2
Series [16] relates to H2228. Nature of the series: Cell viability assay (CellTiter Glo), lung cancer cell line H2228. Type of series: cell-based. Particulars: Homo sapiens, NCI-H2228; Cell Line H2228; read-out: IC50. An outline of the steps:
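Adherent lines got 500-5,000 cells/well and suspension lines 5,000-10,000. Treatment lasted 96 h across a 9-concentration 3-fold series, top concentration up to 30 μM. % inhibition relative to DMSO-only luminescence gave IC50 values.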

In series [17] the test system is MG-63. Nature of the series: Cell proliferation assay, MG-63 (Table 25). Type of series: cell-based. Particulars: Homo sapiens. The method, then:
as §1, §2

Series [18] has as its system HT-1080 luc2. Nature of the series: Cell viability assay (CellTiter Glo), fibrosarcoma HT-1080 luc2. Format: cell-based. To be noted: Homo sapiens, Cell Line HT1080, read-out: IC50. An outline of the steps: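 HT-1080 luc2 fibrosarcoma cells seeded overnight, then exposed 96 h at 37° C to 9-point 3-fold dilutions (top up to 30 μM; DMSO ≤0.25% final). CellTiter Glo luminescence; % inhibition relative to DMSO-only wells, fitted to IC50, relative IC50 or % top inhibition.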

Series [19] deals with 143B. The series is described as follows: Cell viability assay (CellTiter Glo), osteosarcoma 143B. To be noted: Homo sapiens, Cell Line 143B, read-out: IC50. Type of series: cell-based. In short, it runs like this: (§5)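 Cells seeded at 500-5,000/well overnight, then 96 h exposure to 9-point 3-fold dilutions from up to 30 μM (4.6 nM-30 μM), final DMSO ≤0.25%. Viability by CellTiter Glo luminescence; inhibition relative to DMSO-only cells, yielding IC50, relative IC50 or % top inhibition.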

In series [20] the test system is HPAC. Nature of the series: Cell proliferation assay, pancreatic cancer cell line HPAC. Type of series: cell-based. Particulars: Homo sapiens. The method, then: as §1, §2
The test system of series [21] is 22Rv1. The series is described as follows: Cell proliferation assay, prostate cancer cell line 22Rv1. Format: cell-based. Particulars: Homo sapiens. The protocol:
as §1, §2

In series [22] the test system is Panc 12. Nature of the series: Cell proliferation assay, pancreatic cancer cell line Panc 12. Type of series: cell-based. The method, then: as §1, §2
For series [23], the system named is A549. The series is described as follows: Cell viability assay, A549 cells. Format: cell-based. Particulars: Homo sapiens, A549, Cell Line A549; read-out: IC50. In short, it runs like this:
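Growth of A549 cells was assessed with a cell viability assay. Cells were plated at 1,000-10,000 cells/well in 96-well plates and incubated overnight at 37° C. Nine-point 3-fold DMSO dilutions, starting from 30 μM and run in duplicate, were diluted into media (final DMSO 0.25% or less). After 96 hours, CellTiter Glo luminescence was read, inhibition was calculated against DMSO controls, and IC50 was fitted in XL-fit.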

The test system of series [24] is MDA PCa 2b. Nature of the series: Cell proliferation assay, prostate cancer cell line MDA PCa 2b. Format: cell-based. The protocol:
as §1, §2

Series [25] deals with LNCaP. The series is described as follows: Cell proliferation assay, prostate cancer cell line LNCaP. To be noted: Homo sapiens. Type of series: cell-based. The protocol: as §1, §2
The test system of series [26] is PC-3. Nature of the series: Cell proliferation assay, prostate cancer cell line PC-3. Particulars: Homo sapiens. Format: cell-based. The protocol: as §1, §2
Series [27] deals with DU145. Nature of the series: Cell proliferation assay, prostate cancer cell line DU145. Type of series: cell-based. Particulars: Homo sapiens, DU-145. The protocol: as §1, §2
In series [28] the test system is U-2 OS. Nature of the series: Cell proliferation assay, U-2 OS (Table 25). Format: cell-based. Particulars: Homo sapiens, U2OS; Cell Line U-2 OS. The method, then: as §1, §2
Series [29] deals with SJSA-1. Nature of the series: Cell viability assay (CellTiter Glo), osteosarcoma SJSA-1. Particulars: Homo sapiens, 96 hours. Format: cell-based. An outline of the steps:
as §5

The subject of series [30] is SJSA-1. The series is described as follows: Cell proliferation (Alamar Blue) assay, SJSA-1 osteosarcoma, with/without ferrostatin. To be noted: Homo sapiens, SJSA-1, Cell Line SJSA-1; read-out: IC50. Format: cell-based, human. In short, it runs like this: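 Cells seeded at 5000/well, 16-24 h, then exposed 24 h at 37° C to compound, 10-0.0005 μM in 3-fold dilutions, 1% DMSO final. Alamar Blue fluorescence (ex 540/em 590 nm) read after 1.5 h; IC50 from variable-slope sigmoidal fit.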
In general terms: Resazurin is reduced to fluorescent resorufin, in cell work by metabolically active cells.

The test system of series [31] is KHOS/NP. The series is described as follows: Cell proliferation assay, KHOS/NP (Table 25). Format: cell-based. To be noted: Homo sapiens, Cell Line KHOS/NP. The protocol: as §1, §2
The test system of series [32] is KSK-ES-1. Nature of the series: Cell proliferation assay, KSK-ES-1 (Table 25). Type of series: cell-based. To be noted: Cell Line KSK-ES-1. The method, then: as §1, §2

With `COc1ccc2[nH]c3c(c2c1)C[C@H](C)N(C(=O)CCl)[C@H]3c1ccc(N2CCOCC2)cc1` [Compound 121], the 50% inhibitory concentration (IC50) (in general, the concentration that gives 50% inhibition) in series [1] (KP-4, 96 h, pancreatic cancer cell line KP4, 96 hours, CellTiter Glo, read-out: IC50 μM KP4) is under 0.01 µM; in series [2], 88.5 nM. The “Whole Blood Stability % Remaining at 37° C. Human” value in series [3] (0 min) worked out at 100.0%; in series [3] (30 min) it was 90.3%; in [3] (60 min) it was 61.3%. For the same compound, the “Whole Blood Stability % Remaining at 37° C. Mouse” value in series [4] (0 min) is 100.0%; in series [4] (30 min), 84.3%; in series [4] (60 min), 50.0%.

As to `CCCC[C@H]1Cc2c([nH]c3ccccc23)[C@H](c2ccc(N3CCOCC3)cc2)N1C(=O)CCl` [Compound 240], the IC50 in [5] is 19.9 nM; in series [6], 31.7 nM; in series [7] it was 16.9 nM; in series [8] it was 169 nM; in series [9], 7.57 nM; in series [10] it was over 2000 nM. The IC50 in [11] was 35.1 nM; in series [12], 203 nM; in series [13] it was 64.1 nM; in [14] it was 120 nM; in [15], 71.1 nM; in series [16] it was 1.7 nM. Besides, the concentration for half-maximal inhibition (IC50) in series [17] (MG-63, Cell Line MG-63) is 39.7 nM; in [17] (MG-63, Cell Line MG-68) it was over 3000 nM; in series [18], 4.82 nM; in [19], 5.22 nM; in series [20], 28.6 nM; in series [21], 22.9 nM. In addition, the IC50 is 8.55 nM in series [22] (Cell Line Panc 11); 5700 nM in [23]; over 2000 nM in [24]; 574 nM in series [25]; 3.9 nM in series [26]; 6.2 nM in series [27]. Further, the concentration for half-maximal inhibition (IC50) in series [28] came out at 4280 nM.

On to `CCC[C@H]1Cc2c([nH]c3ccccc23)[C@H](c2ccc(N3CCOCC3)cc2)N1C(=O)CCl` [Example 118], for which the half-maximal inhibitory concentration (IC50) is 17.6 nM in [5]; 0.00092 µM in series [1] (KP-4, Cell Line KP4, read-out: IC50); 15.6 nM in series [7]; 130 nM in [8]; 7.34 nM in series [9]; 16.4 nM in series [11]. In addition, the 50% inhibitory concentration (IC50) was 48.9 nM in series [13]; 103 nM in [14]; 54.4 nM in series [15]; 1.38 nM in series [16]; 39.3 nM in series [17] (MG-63, Cell Line MG-63); over 3000 nM in [17] (MG-63, Cell Line MG-67). The IC50 was 3.81 nM in series [18]; 4.74 nM in [19]; 20.5 nM in [20]; 6.38 nM in series [22] (Cell Line Panc 9); 5370 nM in series [23]; 5020 nM in series [28]. This compound also showed an IC50 in series [29] of 28 nM.

As to `COc1ccc2[nH]c3c(c2c1)C[C@H](C)N(C(=O)CCl)[C@H]3c1ccc(N2CCOCC2)cc1` [Example 121], the half-maximal inhibitory concentration (IC50) was 175 nM in series [5]; 108 nM in series [30]; 63.2 nM in [31]; 225 nM in [7]; over 1000 nM in series [8]; 69.3 nM in [9]. Further, the IC50 in [11] turned out to be 206 nM; in series [13], 689 nM; in series [14], 978 nM; in series [15], 1020 nM; in [16], 16.6 nM; in series [17] (MG-63, Cell Line MG-63) it was 535 nM. The IC50 was 63.2 nM in [18]; 206 nM in [20]; 58.6 nM in series [22] (Cell Line Panc 10); 7810 nM in series [23]; 215 nM in series [32]; 4890 nM in [28].
